In US20250059610A1, “METHODS OF TREATING TUMOR” (priority 2017, published 2025):

Experiments:
[1] = tested on: recurrent small cell lung cancer (SCLC); experiment: Clinical trial of nivolumab alone or with ipilimumab in SCLC, exploratory TMB analysis; format: in vivo, human
Excerpt: Subjects were selects who had previously been diagnosed with SCLC, and who had previously received at least one prior platinum-containing regimen (FIG. 23).
The primary objective was to measure the objective response rate (ORR) by per RECIST v1.1. Secondary objectives included monitoring safety, overall survival (OS), progression free survival (PFS), and duration of response (DOR). Prespecified exploratory objectives included biomarker analysis and health status using the EQ-5D instrument.
TMB was determined by whole exome sequencing, using an Illumina HiSeq 2500 using 2×100-bp paired-end reads, and calculated as the total number of nonsynonymous missense mutations in the tumor. For exploratory analyses, patients were divided into 3 subgroups based on TMB tertile.

[2] = tested on: NSCLC with ≥50% PD-L1 expression; conditions: first-line; cited from earlier work

Row | Substance | ORR ([1]; high TMB) [%] | ORR ([1]; low TMB) [%] | ORR ([1]; medium TMB) [%] | ORR [2] [%] | median PFS [2] [months]
1 | ipilimumab: fully human, IgG1 monoclonal antibody that blocks the binding of CTLA-4 to its B7 ligands | ~46.2 | ~22.2 | ~16.0 |  | 
2 | pembrolizumab |  |  |  | 45 | 10.3
